Experiments:
[1] = tested on: normal mice; assay: Single oral glucose tolerance test on normal mice; type: in vivo; conditions: Mus musculus; for inhibition in vivo at 10 mg/kg: 0.5 h, read-out: Reduction rate of blood glucose level (%); for minimal effective dose: read-out: MED
Description: Test Method 3: Single Oral Glucose Tolerance Test on Normal Mice
The anti-hyperglycemic action after glycemic load of the compound to be inspected was examined using normal mice. Hereinafter, the test method will be described.
Male ICR mice which was preparedly reared for one week (6-week-old) was fasted overnight, and used as an animal to be inspected. A compound to be inspected was 0.5% methylcellulose suspension, and the suspension was orally administered 30 minutes before the glucose (2 g/kg) load. With regard to some compounds to be inspected, prior blood drawing was performed (0 min value), and blood glucose levels were measured at 5, 15, 30, 60 and 120 minutes later glucose load when the compound to be inspected was orally administered. A control group was given 0.5% methylcellulose. The evaluation was carried out in the following manner. (Evaluation 1) The reduction rate of blood glucose levels after glucose loading (%) with respect to the control group was calculated at a point of glucose load which is 30 minutes after the oral administration of 10 mg/kg of the compound to be inspected. […] Ex represents example compound numbers.
(Evaluation 2) The reduction rate of blood glucose levels after glucose loading (%) with respect to the control group was calculated at a point of glucose load which is 30 minutes after the oral administration of 10, 3, 1, 0.3 or 0.1 mg/kg of the compound to be inspected. […] Ex represents example compound numbers. In addition, MED describing “below” in Table 3 means that a test was not carried out due to less than dose described.
The area under the blood concentration-time curve (AUC) of blood glucose levels for 0 to 120 minute(s) was calculated from the blood glucose levels before the blood drawing, and the blood glucose levels at 5, 15, 30, 60, and 120 minutes after the glucose load when 30, 10, 3, 1 or 0.3 mg/kg of the compound to be inspected was orally administered.

[2] = biological target: T1, human GPR40 (Homo sapiens, UniProt O14842, R211H); assay: Measurement of GPR40 agonistic activity (intracellular calcium, FLIPR, CHO cell line expressing human GPR40); type: cell-based; conditions: change in fluorescence intensity one minute after measurement
T1 construct: expressed in transfected cells; host or cells: CHO dhfr- cells stably transfected with plasmid pEF-BOS-dhfr-GPR40
Description: Test Method 1: Measurement of GPR40 Agonistic Activity i) Cloning of Human GPR40
In accordance with procedures as described below, the full-length sequence of GPR40 was obtained by a polymerase chain reaction (PCR) to set human genomic DNA (Clontech) as a template.
Oligonucleotide which consists of a base sequence represented by SEQ ID NO. 1 was used as a forward primer, and oligonucleotide which consists of a base sequence represented by SEQ ID NO. 2 was used as a reverse primer. To each 5′ terminus of the forward primer and the reverse primer described above, a base sequence including the XbaI recognition site is attached. In the PCR, using Taq DNA polymerase (Ex Taq DNA polymerase; TAKARA BIO INC.), a cycle consisting of 94° C. (15 sec)/55° C. (30 sec)/72° C. (1 min) was repeated 30 times in the presence of 5% DMSO. As a result, the DNA fragment of about 0.9 kbp was amplified. This DNA fragment was digested with XbaI, followed by inserting into the XbaI site of plasmid pEF-BOS-dhfr (Nucleic Acids Research, 18, 5322, 1990) to obtain plasmid pEF-BOS-dhfr-GPR40.
The base sequence of GPR40 gene in plasmid pEF-BOS-dhfr-GPR40 was decided by a dideoxy terminator method using a DNA sequencer (ABI377 DNA Sequencer; Applied Biosystems). The base sequence of GPR40 gene was the same with the base sequence represented by SEQ ID NO. 3. The base sequence represented by SEQ ID NO. […] 4 […]
ii) Preparation of GPR40 Stable Expression Cell
A CHO dhfr cell (CHO cell deleting a dihydrofolate reductase (dhfr) gene) was used as a cell in which GPR 40 protein was expressed. In addition, the plasmid pEF-BOS-dhfr-GPR40 obtained in the above i) was used as an expressing plasmid to express GPR40 protein. To a 6 well plate (Asahi Techno Glass Corp.), the CHO dhfr cells were seeded to become 80 to 90% confluent in an aMEM medium having 10% fetal calf serum (FCS), and cultivated overnight. Then, 2 μg of plasmid pEF-BOS-dhfr-GPR40 per well was transferred generetically thereto using a transfection reagent (Lipofectamine 2000; Invitrogen Corporation). After cultivating for 24 hours subsequent to the gene transfer, the cell were diluted and reseeded. On this occasion, the αMEM medium having 10% FCS was changed for an αMEM medium having 10% FCS and no nucleic acid. After 20 days cultivation, formed cell colonies were collected respectively and cultivated, thereby obtaining CHO cells stably expressing GPR40. Among these, cells high-reactive to an oleic acid and a linoleic acid which were intrinsic ligands were selected. […]
iii) Measurement of GPR40 Agonistic Activity
The GPR40 agonistic activity was measured with fluctuation of the intracellular calcium concentration as an index by FLIPR (registered trademark, Molecular Devices Corporation). Hereinafter, test methods will be described.
A CHO cell line expressing human GPR40 was seeded with 6×10^3 per well to a 384-well black plate (Becton, Dickinson and Company), and cultivated in a CO2 incubator overnight. For a luminescent pigment, a Calcium-3 assay kit (Molecular Devices Corporation) was used, and dissolved in 10 ml of a HBSS-HEPES buffer (PH7.4, 1×HBSS, 20 mM HEPES, Invitrogen Corporation) for a bottle. 35.68 mg of probenecid (Sigma) was dissolved in 250 μl of 1M NaOH, and then 250 μl of a HBSS-HEPES buffer was added to blend. 16 ml of a HBSS-HEPES buffer, 640 μl of the luminescent pigment and 32 μl of probenecid were added to blend for a solution of the luminescent pigment per plate. The medium of the plate was removed, 40 μl of the solution of the luminescent pigment per well was dispensed, followed by incubating at room temperature for 2 hours. A compound to be inspected was dissolved in DMSO, and diluted with a HBSS-HEPES buffer. A reaction was initiated by 10 μl of dispensation, the fluctuation of the intracellular calcium concentration was measured by FLIPR. An EC50 value of the compound to be inspected was calculated from the dose-response curve of change in fluorescence intensity one minute after measurement.

T1 sequence (O14842 whole entry R211H): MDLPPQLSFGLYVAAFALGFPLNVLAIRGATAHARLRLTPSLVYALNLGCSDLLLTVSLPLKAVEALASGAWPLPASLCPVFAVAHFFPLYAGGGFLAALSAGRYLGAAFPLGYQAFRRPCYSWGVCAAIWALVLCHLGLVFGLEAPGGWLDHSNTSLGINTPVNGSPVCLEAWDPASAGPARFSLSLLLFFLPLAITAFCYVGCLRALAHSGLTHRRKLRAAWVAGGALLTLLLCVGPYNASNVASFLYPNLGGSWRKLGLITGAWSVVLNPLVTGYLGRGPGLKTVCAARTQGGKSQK

Structure (SMILES)	inhibition in vivo at 10 mg/kg [1] [%]	minimal effective dose [1] [mg/kg]	EC50 [2] [nM]
Cc1cc(OC[C@@H](O)CO)cc(C)c1-c1cccc(COc2ccc(Cn3oc(=O)[n-]c3=O)cc2)c1C.[Na+] [Example 7]	30	10	410
Cc1cc(OCCCNC(=O)C2CC2)cc(C)c1-c1cccc(COc2ccc(Cn3oc(=O)[n-]c3=O)cc2)c1C.[Na+] [Example 21]	26	3	600
Cc1cc(OC[C@H](O)CO)cc(C)c1-c1cccc(COc2ccc(Cn3oc(=O)[n-]c3=O)cc2)c1C.[Na+] [Example 26]	27	10	410
Cc1c(COc2ccc(Cn3oc(=O)[n-]c3=O)cc2)cccc1-c1cccc(OCCC(C)(C)O)c1C.[Na+] [Example 27]	42	1	230
Cc1cc(-c2cccc(COc3ccc(Cn4oc(=O)[n-]c4=O)cc3)c2C)c(C)cc1OCCC(C)(C)O.[Na+] [Example 31]	50	1	69
Cc1c(COc2ccc(Cn3oc(=O)[n-]c3=O)cc2)cccc1-c1ccc(OCCC(C)(C)O)c(C)c1C.[Na+] [Example 32]	47	1	68
Cc1cc(OCC[C@@H](C)O)cc(C)c1-c1cccc(COc2ccc(Cn3oc(=O)[n-]c3=O)cn2)c1C.[Na+] [Example 44]	34	< 0.3	190
Cc1cc(OCC[C@H](C)O)cc(C)c1-c1cccc(COc2ccc(Cn3oc(=O)[n-]c3=O)cn2)c1C.[Na+] [Example 45]	35	1	280
COC[C@@H](O)COc1cc(C)c(-c2cccc(COc3ccc(Cn4oc(=O)[n-]c4=O)cc3)c2C)c(C)c1.[Na+] [Example 56]	29	3	820
Cc1cc(OCCC(C)(C)O)nc(C)c1-c1cccc(COc2ccc(Cn3oc(=O)[n-]c3=O)cc2)c1C.[Na+] [Example 60]	45	< 3	160
Cc1cc(-c2cccc(COc3ccc(Cn4oc(=O)[n-]c4=O)cc3)c2C)c(C)cc1OCCO.[Na+] [Example 63]	22	< 1	380
Cc1cc(OC[C@@H](O)CO)cc(C)c1-c1cccc(CNc2ccc(Cn3oc(=O)[n-]c3=O)cc2)c1C.[Na+] [Example 68]	23	3	22
Cc1cc(OC[C@H](O)CO)cc(C)c1-c1cccc(CNc2ccc(Cn3oc(=O)[n-]c3=O)cc2)c1C.[Na+] [Example 69]	34	1	69
Cc1cc(OCCO)cc(C)c1-c1cccc(CNc2ccc(Cn3oc(=O)[n-]c3=O)cc2)c1C.[Na+] [Example 70]	31	10	70
CO[C@@H](CO)COc1cc(C)c(-c2cccc(COc3ccc(Cn4oc(=O)[n-]c4=O)cc3)c2C)c(C)c1.[Na+] [Example 74]	23	3	320
Cc1cc(OCCO)cc(C)c1-c1cccc(CNc2ccc(Cn3oc(=O)[n-]c3=O)cn2)c1C.[Na+] [Example 80]	26	10	250
Cc1cc(OCC[C@@H](C)O)nc(C)c1-c1cccc(CNc2ccc(Cn3oc(=O)[n-]c3=O)cc2)c1C.[Na+] [Example 81]	33	< 3	160
Cc1cc(OCC[C@@H](C)O)nc(C)c1-c1cccc(COc2ccc(Cn3oc(=O)[n-]c3=O)cc2)c1C.[Na+] [Example 84]	35	< 3	280
Cc1cc(OCCO)c(F)cc1-c1cccc(CNc2ccc(Cn3oc(=O)[n-]c3=O)cc2)c1C.[Na+] [Example 85]	24	3	420
Cc1cc(-c2cccc(CNc3ccc(Cn4oc(=O)[n-]c4=O)cc3)c2C)c(C)nc1OCCO.[Na+] [Example 89]	25	3	110
Cc1cc(OCCO)c(F)cc1-c1cccc(COc2ccc(Cn3oc(=O)[n-]c3=O)cc2)c1C.[Na+] [Example 94]	39	3	640
Cc1cc(-c2cccc(CNc3ccc(Cn4oc(=O)[n-]c4=O)cc3)c2C)c(C)cc1OC[C@@H](O)CO.[Na+] [Example 96]	23	10	190
Cc1cc(-c2cccc(CNc3ccc(Cn4oc(=O)[n-]c4=O)cc3)c2C)c(C)cc1OC[C@H](O)CO.[Na+] [Example 97]	29	10	190
Cc1cc(OCC[C@@H](O)CO)cc(C)c1-c1cccc(CNc2ccc(Cn3oc(=O)[n-]c3=O)cc2)c1C.[Na+] [Example 101]	39	3	230
Cc1cc(OCC[C@H](O)CO)cc(C)c1-c1cccc(CNc2ccc(Cn3oc(=O)[n-]c3=O)cc2)c1C.[Na+] [Example 102]	48	10	230
Cc1c(CNc2ccc(Cn3oc(=O)[nH]c3=O)cc2)cccc1-c1cccc(OCCO)c1C [Example 107]			93
CCC(=O)NCCCOc1cc(C)c(-c2cccc(COc3ccc(Cn4oc(=O)[n-]c4=O)cc3)c2C)c(C)c1.[Na+] [Example 119]	26	3	810
